The values that follow come from patent US20250034118A1, “ANTIMALARIAL HEXAHYDROPYRIMIDINE DERIVATIVES” (UCB BIOPHARMA SRL, priority 2021, published 2025).

Structures can show the parent of a compound that is named as a salt. Where two headings read alike, the source gives them in different places.

This test deals with Plasmodium falciparum 3D7 strain. Briefly: P. falciparum 3D7 asexual blood stage assay (SYBR green readout). The format is cell-based. An excerpt: The compounds of the present invention are potent inhibitors of the growth and propagation of the Plasmodium falciparum parasite in human blood.
The assay used to measure the effect of test compounds on a bloodstream stage of Plasmodium falciparum 3D7 strain employs SYBR green as the readout. This is a dye that binds to double stranded deoxyribonucleic acid (DNA) with a resulting increase in fluorescence, allowing detection of P. falciparum DNA in infected erythrocytes, and thereby providing a measure of parasite growth and propagation.
Erythrocytes (A+ blood) were prepared for both parasite culture and assay by washing 4 times with incomplete media (15.9 g RPMI 1640 (25 mM HEPES, L-glutamine), 1 g NaHCO3, 2 g glucose, 400 μL gentacin (500 mg/mL), 2 mL hypoxanthine solution (13.6 g/L in 0.1M NaOH pH 7.3) in 1 litre of media). The cells were centrifuged at 1800 g for 5 minutes, before decanting the supernatant and re-suspending in fresh incomplete media. On the final wash, the cells were re-suspended in complete media (incomplete media with 5 g/L AlbumaxII), and centrifuged at 1800 g for 3 minutes. This cell sediment was treated as 100% haematocrit.
P. falciparum 3D7 was cultured in erythrocytes at 5% haematocrit in complete media at 37° C. (1% O2, 3% CO2, balance N2). […]
On day 5, fluorescent signal was measured using a BioTek plate reader (excitation 485 nm, emission 528 nm). […]

Where the note is “3D7, Erythrocyte, 72 h”, `CO[C@H]1C[C@@H](N2C(=N)N[C@](C)(c3cccc(NC(=O)c4cncn4CC(F)(F)F)c3Cl)CC2=O)CCC1(F)F` (relative stereo) [Example 2, N-(2-Chloro-3-{(4S)-1-[(1S*, 3S*)-4,4-difluoro-3-methoxycyclohexyl]-2-imino-4-methyl-6-oxohexahydropyrimidin-4-yl}phenyl)-3-(2,2,2-trifluoroethyl)imidazole-4-carboxamide hydrochloride] displayed a 50% inhibitory concentration (IC50) of 4.2 nM.

On to `C[C@@H]1C[C@H](N2C(=N)N[C@](C)(c3cccc(NC(=O)c4cncn4CC(F)(F)F)c3Cl)CC2=O)CCC1(F)F` [Example 1, N-(2-Chloro-3-{(4S)-1-[(1R,3R)-4,4-difluoro-3-methylcyclohexyl]-2-imino-4-methyl-6-oxohexahydropyrimidin-4-yl}phenyl)-3-(2,2,2-trifluoroethyl)imidazole-4-carboxamide], for which the IC50 (Erythrocyte, P. falciparum 3D7 in erythrocytes, 5% haematocrit, 0.5% parasitaemia, 72 h incubation, SYBR green fluorescence, read-out: IC50) is 5 nM.

A word on the IC50: it is the concentration that gives 50% inhibition.
